Literature values as cited in patent publication US20060079683A1, “Arylthiobenzylpiperidine derivatives” (priority 2004, published 2006).

Experiments:
Conditions in all cases: B. Borowsky, et al., Nature Medicine, 2002
[1] = molecular target: T1, MCH1 receptor (Cavia porcellus, UniProt H0VKT7)
T1 construct: host or cells: living guinea pig, endogenous receptor

[2] = molecular target: T2, MCH1 receptor (Rattus norvegicus, UniProt P97639)
T2 construct: host or cells: living rat, endogenous receptor
T2 sequence (P97639 whole entry): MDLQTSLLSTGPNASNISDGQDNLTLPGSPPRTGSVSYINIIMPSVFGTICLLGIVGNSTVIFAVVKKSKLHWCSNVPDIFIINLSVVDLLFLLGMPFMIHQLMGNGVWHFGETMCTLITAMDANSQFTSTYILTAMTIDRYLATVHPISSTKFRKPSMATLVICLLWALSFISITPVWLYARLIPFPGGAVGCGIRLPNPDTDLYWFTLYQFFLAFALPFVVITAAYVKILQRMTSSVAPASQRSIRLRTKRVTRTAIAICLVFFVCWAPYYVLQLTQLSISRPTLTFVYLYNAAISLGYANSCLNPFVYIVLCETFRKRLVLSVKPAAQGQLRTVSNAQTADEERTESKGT

[3] = molecular target: T2, MCH1 receptor; remark: listed apart in the source

T1 sequence (H0VKT7 1-355): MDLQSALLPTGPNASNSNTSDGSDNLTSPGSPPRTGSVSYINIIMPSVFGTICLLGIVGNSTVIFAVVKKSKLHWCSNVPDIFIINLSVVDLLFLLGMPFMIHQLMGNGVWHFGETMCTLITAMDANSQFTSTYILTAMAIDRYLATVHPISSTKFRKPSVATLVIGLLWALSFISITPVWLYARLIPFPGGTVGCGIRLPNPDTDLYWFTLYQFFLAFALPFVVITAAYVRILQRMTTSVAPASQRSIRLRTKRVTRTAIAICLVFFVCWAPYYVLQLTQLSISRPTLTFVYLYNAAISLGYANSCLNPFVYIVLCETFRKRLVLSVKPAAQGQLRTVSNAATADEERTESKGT

COCC1=C(C(=O)OC)[C@H](c2ccc(F)c(F)c2)N(C(=O)NCCCN2CCC(c3cccc(NC(C)=O)c3)CC2)C(=O)N1 [SNAP-7941]
profile in behavioral model of depression and/or anxiety: guinea pig maternal-separation vocalization [1]: profile similar to clinically used anti-depressants and anxiolytics
profile in behavioral model of depression and/or anxiety: rat social interaction [2]: profile similar to clinically used anti-depressants and anxiolytics
profile in behavioral model of depression and/or anxiety: rat forced-swim [3]: profile similar to clinically used anti-depressants and anxiolytics
